# According to patent publication US20140378460A1, “COMPOSITIONS AND METHODS FOR TREATING NEURODEGENERATIVE DISEASE” (COGNITION THERAPEUTICS, INC., priority 2011, published 2014):
# Read-outs that look alike come from different tables or passages of the source.
# What was measured:
# [1] = test system: Abeta oligomer-induced membrane trafficking deficits in primary hippocampal neurons; experiment: Membrane trafficking/exocytosis (MTT) assay; type: cell-based, rat
# Method: The methods used to generate the results were as follows in the Membrane Trafficking/Exocytosis (MTT) assay.
# Primary hippocampal neurons from E18 Sprague-Dawley rat embryos were plated at optimized concentrations in 384 well plates in NB media (Invitrogen). Neurons were maintained in cultures for 3 weeks, with twice weekly feeding of NB media with N2 supplement (Invitrogen).
# A test compound was added to cells at concentrations ranging from 100 uM to 0.001 nM followed by addition of vehicle or Abeta oligomer preparations (3 μM total Abeta protein concentration), and incubated for 1 to 24 hr at 37° C. in 5% CO2. MTT reagent (3-(4,5-dimethylthizaol-2-yl)-2,5diphenyl tetrazolium bromide) (Roche Molecular Biochemicals) was reconstituted in phosphate buffered saline to 5 mg/mL. 10 μl, of MTT labeling reagent is added to each well and incubated at 37° C. for 1 h, then imaged. Exocytosis was assessed by automated microscopy and image processing to quantify the amount of endocytosed and exocytosed formazan.
# Each assay plate was formatted so that compounds are tested with and without Abeta oligomer on each plate.
# [2] = target: T1, sigma-2 receptor (Rattus norvegicus, UniProt Q5U3Y7); design: other: known prior art compounds, published studies; conditions: cited from earlier work
# T1 sequence (Q5U3Y7 1-176): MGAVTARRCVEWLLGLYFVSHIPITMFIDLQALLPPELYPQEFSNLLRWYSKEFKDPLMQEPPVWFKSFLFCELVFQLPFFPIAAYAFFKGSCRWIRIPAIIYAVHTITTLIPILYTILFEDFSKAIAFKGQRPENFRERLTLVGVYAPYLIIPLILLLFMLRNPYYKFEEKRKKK
# [3] = Drug-like properties of known compounds (BBB, oxidative metabolism); conditions: (Oxidative substr.; Not BBB, Ox Sub.); first line given
# [4] = target: Sigma-1 receptors; conditions: cited from earlier work; for Ki: Table 11E, clinical compounds, first figure of S1/S2, read-out: Sigma Affinity (S1); for Sigma 1 (Type of Activity): known prior art compounds
# [5] = target: Sigma-2 receptors; conditions: cited from earlier work; for Ki: Table 11E, clinical compounds, second figure of S1/S2, read-out: Sigma Affinity (S2)
# [6] = test system: muscarinic M1-M4; conditions: cited from earlier work
# [7] = test system: Na + ch2; conditions: cited from earlier work
# [8] = target: NMDAR2B (Homo sapiens, UniProt Q13224); conditions: cited from earlier work
# [9] = target: T2, Sigma-1 receptors (UniProt Q60492); conditions: cited from earlier work
# T2 construct: other: known prior art compounds, published studies
# [10] = list wraps over the rows below; first line given; cited from earlier work
# [11] = target: serotonin transporter (Homo sapiens, UniProt P31645); conditions: cited from earlier work
# [12] = target: Dopamine transporter (Homo sapiens, UniProt Q01959); conditions: cited from earlier work
# [13] = target: Adrenergic transporter (Homo sapiens, UniProt P23975); conditions: cited from earlier work
# [14] = test system: Abeta oligomer-induced synapse loss in primary hippocampal neurons; experiment: Synapse loss assay; type: cell-based, rat
# Method: In this assay, Abeta oligomers were brought in contact with mature primary neurons in culture and their binding was determined by immunohistochemistry (anti-Abeta antibody) and quantified by image processing. The amount of Abeta in neuronal dendrites is assessed by counting the number of labeled puncta on the neuritis. […] This labeling is associated with synapses, co-localizing with the post-synaptic scaffold protein PSD-95 (Lacor et al., '04). […] The number of synapses can also be quantified in this assay by immunofluorochemistry. Similar procedures for binding assays can be found in the literature. […] Review.
# Primary hippocampal neuronal culture was established as in the membrane trafficking assay above. […] Pretreatment with compounds to be tested lasted for 1 hr and addition of Abeta oligomers or no oligomer (vehicle alone) in a final concentration of 70 ul was followed by incubation for an additional 23 hrs.
# The plates were then washed 3× with PBS for 5 min each. The plates were blocked at RT for 1 hr in 5% goat serum and 0.5% Triton X-100 in PBS. […] Primary antibodies were incubated overnight at 4° C. The plates were then washed 3× with PBS for 5 min each. […] Secondary antibodies were incubated at RT for 1 hr. The plates were washed once with PBS. DAPI (4′,6-diamidino-2-phenylindole, Invitrogen) was then applied at 0.03 ug/ul and incubated at RT for 5 min, then washed with PBS.
# [15] = test system: 5-HT2A, B, C; conditions: cited from earlier work
# [16] = test system: alpha 1A, 1B; conditions: cited from earlier work
# [17] = target: NMDAR2A (Homo sapiens, UniProt Q12879); conditions: cited from earlier work
# [18] = test system: PCP; conditions: cited from earlier work
# [19] = test system: SKOV-3 human ovarian cancer cell line; experiment: MTS tumor cell viability assay; type: cell-based
# Method: The cytotoxicity of compounds shown below was determined using the CellTiter96 Aqueous One Solution Assay (Promega, Madison, Wis.). […] The plate was read at 490 nm in a Victor3 plate reader (PerkinElmer Life and Analytical Sciences, Shelton, Conn.). The EC^50 value, defined as the concentration of the sigma ligand required to inhibit cell viability by 50% relative to untreated cells, was determined from the dose response curve for each cell line.
# [20] = test system: caspase-3 in SKOV-3 human ovarian cancer cells; experiment: Caspase-3 activity in tumor cells; type: cell-based
# [21] = test system: caspase-3 in neuronal cultures; experiment: Caspase-3 activity in neurons; type: cell-based
# [22] = test system: neuronal cultures
# [23] = test system: K+ ch; conditions: b58; cited from earlier work
# [24] = Table 11C, known prior art compounds, read-out: Inhibition Abeta oligomer-induced Membrane Trafficking EC50
# [25] = Table 11D, read-out: Membrane trafficking IC50
# [26] = Table 11C, read-out: S1 binding Ki
# [27] = Table 11D, read-out: Sigma-1 Receptor Ki
# [28] = known prior art compounds, published studies, read-out: Sigma 1 Binding Ki
# [29] = Table 11C, read-out: S2 binding Ki
# [30] = Table 11D, read-out: Sigma-2 Receptor Ki
# [31] = known prior art compounds, published studies, read-out: Sigma 2 Binding Ki
# [32] = Rattus norvegicus, Hippocampal neuron, Table 11C, known prior art compounds, read-out: Inhibition Abeta oligomer-induced Membrane Trafficking EC50
# [33] = read-out: S2 binding Ki, Table 11C
# Chain of NMDAR2B (Q13224 27-1484, species assumed, other chains not shown): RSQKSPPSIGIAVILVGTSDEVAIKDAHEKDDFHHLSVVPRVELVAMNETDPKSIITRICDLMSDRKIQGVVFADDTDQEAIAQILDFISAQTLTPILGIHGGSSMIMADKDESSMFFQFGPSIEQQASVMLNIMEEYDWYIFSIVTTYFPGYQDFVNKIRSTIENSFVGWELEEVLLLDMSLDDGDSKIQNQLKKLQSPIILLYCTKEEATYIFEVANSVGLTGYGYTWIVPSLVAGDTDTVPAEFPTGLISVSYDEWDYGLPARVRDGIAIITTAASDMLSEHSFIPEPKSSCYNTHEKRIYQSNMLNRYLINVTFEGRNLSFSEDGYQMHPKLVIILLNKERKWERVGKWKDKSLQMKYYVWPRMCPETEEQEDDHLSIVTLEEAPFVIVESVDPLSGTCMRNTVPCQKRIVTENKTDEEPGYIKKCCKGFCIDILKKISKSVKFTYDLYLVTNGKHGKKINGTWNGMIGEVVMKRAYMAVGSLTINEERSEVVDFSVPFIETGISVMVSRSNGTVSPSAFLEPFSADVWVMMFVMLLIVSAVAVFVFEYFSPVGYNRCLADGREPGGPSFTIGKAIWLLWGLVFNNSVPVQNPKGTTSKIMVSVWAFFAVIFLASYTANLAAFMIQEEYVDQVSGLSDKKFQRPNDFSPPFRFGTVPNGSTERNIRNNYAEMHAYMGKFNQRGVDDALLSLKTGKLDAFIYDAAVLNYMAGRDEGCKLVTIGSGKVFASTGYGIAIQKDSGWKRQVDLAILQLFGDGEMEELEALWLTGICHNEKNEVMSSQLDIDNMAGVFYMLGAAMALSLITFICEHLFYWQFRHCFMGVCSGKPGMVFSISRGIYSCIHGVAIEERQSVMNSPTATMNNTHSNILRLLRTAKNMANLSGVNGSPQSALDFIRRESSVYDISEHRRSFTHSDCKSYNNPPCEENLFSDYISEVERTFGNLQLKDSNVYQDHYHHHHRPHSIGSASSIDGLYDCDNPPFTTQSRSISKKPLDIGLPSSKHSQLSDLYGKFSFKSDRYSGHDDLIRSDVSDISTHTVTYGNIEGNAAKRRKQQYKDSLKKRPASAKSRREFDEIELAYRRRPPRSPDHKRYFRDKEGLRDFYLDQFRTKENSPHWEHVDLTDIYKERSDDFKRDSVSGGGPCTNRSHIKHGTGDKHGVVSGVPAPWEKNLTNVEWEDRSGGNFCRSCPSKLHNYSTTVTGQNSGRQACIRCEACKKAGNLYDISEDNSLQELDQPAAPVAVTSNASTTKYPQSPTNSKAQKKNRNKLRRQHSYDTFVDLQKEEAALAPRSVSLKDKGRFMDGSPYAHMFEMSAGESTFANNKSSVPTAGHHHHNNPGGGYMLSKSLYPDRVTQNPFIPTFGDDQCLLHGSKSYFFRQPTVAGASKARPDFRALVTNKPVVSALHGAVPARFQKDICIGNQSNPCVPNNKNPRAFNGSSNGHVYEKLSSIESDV
# Chain of NMDAR2A (Q12879 23-1464, other chains not shown): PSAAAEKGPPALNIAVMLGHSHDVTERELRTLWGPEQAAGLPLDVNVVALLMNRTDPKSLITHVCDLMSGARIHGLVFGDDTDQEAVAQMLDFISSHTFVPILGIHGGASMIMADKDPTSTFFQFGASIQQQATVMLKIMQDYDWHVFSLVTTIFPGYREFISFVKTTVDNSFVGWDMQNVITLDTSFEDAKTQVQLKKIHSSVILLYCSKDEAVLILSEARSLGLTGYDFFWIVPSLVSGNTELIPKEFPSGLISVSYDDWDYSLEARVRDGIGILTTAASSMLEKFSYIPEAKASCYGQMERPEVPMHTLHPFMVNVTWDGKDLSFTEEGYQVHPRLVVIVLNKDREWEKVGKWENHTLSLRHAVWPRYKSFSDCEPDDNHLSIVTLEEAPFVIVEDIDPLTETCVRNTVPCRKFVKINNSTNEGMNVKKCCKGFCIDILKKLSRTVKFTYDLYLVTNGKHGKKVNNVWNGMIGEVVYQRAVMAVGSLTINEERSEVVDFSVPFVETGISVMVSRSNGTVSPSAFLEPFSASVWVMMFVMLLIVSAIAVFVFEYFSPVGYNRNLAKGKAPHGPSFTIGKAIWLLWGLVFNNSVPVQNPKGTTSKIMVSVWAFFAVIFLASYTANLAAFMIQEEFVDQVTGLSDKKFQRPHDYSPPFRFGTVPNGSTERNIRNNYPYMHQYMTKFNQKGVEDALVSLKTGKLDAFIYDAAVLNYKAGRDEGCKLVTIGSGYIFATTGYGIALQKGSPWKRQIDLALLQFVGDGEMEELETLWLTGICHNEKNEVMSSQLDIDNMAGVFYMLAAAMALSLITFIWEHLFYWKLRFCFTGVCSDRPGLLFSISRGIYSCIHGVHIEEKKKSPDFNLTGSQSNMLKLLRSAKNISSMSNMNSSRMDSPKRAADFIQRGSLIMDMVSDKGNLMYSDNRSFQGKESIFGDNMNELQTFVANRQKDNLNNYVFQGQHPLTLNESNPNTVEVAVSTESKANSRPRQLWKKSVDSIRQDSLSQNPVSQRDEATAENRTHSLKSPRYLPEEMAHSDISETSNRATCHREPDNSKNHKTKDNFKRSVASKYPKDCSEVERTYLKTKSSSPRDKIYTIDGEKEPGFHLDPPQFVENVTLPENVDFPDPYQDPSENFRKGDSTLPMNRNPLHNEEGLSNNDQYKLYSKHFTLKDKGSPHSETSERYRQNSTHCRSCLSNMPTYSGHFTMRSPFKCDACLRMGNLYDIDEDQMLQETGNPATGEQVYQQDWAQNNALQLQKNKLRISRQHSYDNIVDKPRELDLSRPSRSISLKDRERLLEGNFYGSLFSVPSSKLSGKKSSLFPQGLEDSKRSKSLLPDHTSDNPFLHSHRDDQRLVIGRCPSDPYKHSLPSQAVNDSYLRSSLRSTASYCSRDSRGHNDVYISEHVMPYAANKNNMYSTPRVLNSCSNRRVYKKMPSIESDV
# Chain of Adrenergic transporter (P23975 whole entry): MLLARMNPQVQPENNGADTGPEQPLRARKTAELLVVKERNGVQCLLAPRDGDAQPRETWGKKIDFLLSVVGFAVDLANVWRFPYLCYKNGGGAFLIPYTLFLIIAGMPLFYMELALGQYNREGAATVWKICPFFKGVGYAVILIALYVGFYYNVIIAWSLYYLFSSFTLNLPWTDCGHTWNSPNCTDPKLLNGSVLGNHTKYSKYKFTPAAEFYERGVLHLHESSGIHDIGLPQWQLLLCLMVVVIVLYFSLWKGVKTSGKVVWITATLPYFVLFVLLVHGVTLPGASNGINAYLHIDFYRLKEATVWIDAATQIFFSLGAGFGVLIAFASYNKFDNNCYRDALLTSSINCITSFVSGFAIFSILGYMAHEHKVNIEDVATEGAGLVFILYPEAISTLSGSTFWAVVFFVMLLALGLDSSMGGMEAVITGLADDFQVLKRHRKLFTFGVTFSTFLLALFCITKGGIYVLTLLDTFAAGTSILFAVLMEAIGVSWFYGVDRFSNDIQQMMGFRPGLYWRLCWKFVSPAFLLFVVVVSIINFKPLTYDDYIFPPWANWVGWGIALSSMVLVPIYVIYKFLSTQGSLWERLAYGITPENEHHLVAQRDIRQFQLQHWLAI
# Chain of serotonin transporter (P31645 whole entry): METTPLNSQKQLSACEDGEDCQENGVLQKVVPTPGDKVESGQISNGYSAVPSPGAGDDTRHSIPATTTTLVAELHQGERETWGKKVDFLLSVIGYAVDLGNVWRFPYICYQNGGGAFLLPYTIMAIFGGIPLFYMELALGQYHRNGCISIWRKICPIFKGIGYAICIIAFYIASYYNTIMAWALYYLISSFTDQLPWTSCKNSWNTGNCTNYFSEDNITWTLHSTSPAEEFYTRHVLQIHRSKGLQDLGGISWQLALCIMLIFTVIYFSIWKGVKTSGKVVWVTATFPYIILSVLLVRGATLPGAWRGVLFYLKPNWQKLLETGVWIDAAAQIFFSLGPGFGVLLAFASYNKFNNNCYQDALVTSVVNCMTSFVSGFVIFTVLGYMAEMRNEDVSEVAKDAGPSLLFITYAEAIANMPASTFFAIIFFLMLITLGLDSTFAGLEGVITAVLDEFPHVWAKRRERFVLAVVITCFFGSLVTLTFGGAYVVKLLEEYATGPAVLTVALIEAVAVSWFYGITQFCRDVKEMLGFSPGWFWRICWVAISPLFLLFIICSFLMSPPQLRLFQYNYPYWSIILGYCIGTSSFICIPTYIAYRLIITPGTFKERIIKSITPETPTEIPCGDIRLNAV
# Chain of Dopamine transporter (Q01959 whole entry): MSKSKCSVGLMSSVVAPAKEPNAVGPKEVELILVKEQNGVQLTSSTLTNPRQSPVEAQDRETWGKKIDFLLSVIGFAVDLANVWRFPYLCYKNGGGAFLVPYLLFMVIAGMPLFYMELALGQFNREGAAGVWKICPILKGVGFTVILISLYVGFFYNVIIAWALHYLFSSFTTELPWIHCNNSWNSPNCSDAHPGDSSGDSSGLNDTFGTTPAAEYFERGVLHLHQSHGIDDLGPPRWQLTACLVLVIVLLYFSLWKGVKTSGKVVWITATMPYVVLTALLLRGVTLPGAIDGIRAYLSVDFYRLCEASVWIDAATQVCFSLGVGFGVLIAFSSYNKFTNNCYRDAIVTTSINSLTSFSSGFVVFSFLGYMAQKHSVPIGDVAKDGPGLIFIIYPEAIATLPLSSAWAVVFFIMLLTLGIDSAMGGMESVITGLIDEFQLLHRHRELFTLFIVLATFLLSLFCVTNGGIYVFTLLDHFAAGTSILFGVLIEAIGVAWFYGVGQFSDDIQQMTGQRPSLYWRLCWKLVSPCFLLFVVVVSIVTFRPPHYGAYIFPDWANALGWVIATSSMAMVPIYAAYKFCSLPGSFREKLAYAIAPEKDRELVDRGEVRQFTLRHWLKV
smiles,measurement,setting,value
"CC(C)=CCN1CCC2(C)c3cc(O)ccc3CC1C2C (single isomer, unassigned; (+)) [(+) Pentazocine, (+)-pentazocine]",IC50,"[1]; Rattus norvegicus, Hippocampal neuron, read-out: Membrane trafficking IC50 (uM)",7.6 µM
same,Functional Neuronal Phenotype,[1]; Table 11D,Antagonist
same,Ki,"[2]; read-out: Sigma-2 Receptor Ki, Table 11D",> 5000 nM
same,Drug-like properties,[3],Yes
CN(C)CC1COC(c2ccccc2)(c2ccccc2)C1 (stereo not shown) [Anavex 1-41],Ki,[4],7 nM
same,Ki,[5],> 10000 nM
same,Other Targets: muscarinic M1-M4,[6],"(18-114 nM), Na +"
same,Other Targets: Na + ch2,[7],ch2 (>10 uM)
CN(C)CC1CCOC1(c1ccccc1)c1ccccc1 (stereo not shown) [Anavex 2-73],Ki,[4],860 nM
same,Ki,[5],> 20000 nM
same,Other Targets: muscarinic M1-M4,[6],"(3-5 uM),"
same,Other Targets: NMDAR2B,[8],NMDAR2B (8 uM
same,Other Targets: Na + ch2,[7],(5 uM)
CN(C)CCN(C)CCc1ccc(Cl)c(Cl)c1 [BD1047],Max Inhibition of Abeta (%),[1],100%
same,Functional Neuronal Phenotype,[1]; Table 11C,Antagonist
same,EC50,[1]; [24],2.4 µM
same,Functional Neuronal Phenotype,[1]; Table 11D,Antagonist
same,IC50,[1]; [25],2.4 µM
same,Ki,[9]; [26],0.9 nM
same,Ki,[9]; [27],0.9 nM
same,Ki,[9]; [28],0.9 nM
same,Sigma 1 (Type of Activity),[4],(antagonist)
same,Selectivity other activities,[10],"D2, β3-AR"
same,Ki,[2]; [29],47 nM
same,Ki,[2]; [30],47 nM
same,Ki,[2]; [31],47 nM
"COCCCC/C(=N\OCCN)c1ccc(C(F)(F)F)cc1 [Fluvoxamine, fluvoxamine]",EC50,[1]; [32],2.5 µM
same,IC50,"[1]; Rattus norvegicus, Hippocampal neuron, Table 11D, read-out: Membrane trafficking IC50",2.5 µM
same,Functional Neuronal Phenotype,[1]; Table 11C,Antagonist
same,Functional Neuronal Phenotype,[1]; Table 11D,Antagonist
same,Ki,[9]; [26],13 nM
same,Ki,[9]; [27],13 nM
same,Ki,[9]; [28],13 nM
same,Sigma 1 (Type of Activity),[4],(agonist)
same,Ki,[5],710 nM
same,Other Targets: serotonin transporter,[11],"nM), Serotonin (12"
same,Other Targets: Dopamine transporter,[12],transporter (1.5 nM
same,Other Targets: Adrenergic transporter,[13],transporter (299 nM
"O=C(CCCN1CCC(O)(c2ccc(Cl)cc2)CC1)c1ccc(F)cc1 [Haloperidol, haloperidol]",Max Inhibition of Abeta (%),[1],100%
same,Functional Neuronal Phenotype,[1]; Table 11C,Antagonist
same,Functional Neuronal Phenotype,[1]; Table 11D,Antagonist
same,Effect on Abeta oligomer-induced synapse loss,[14],completely eliminated synapse loss
same,Sigma 1 (Type of Activity),[4],(antagonist)
same,Drug-like properties,[3],Yes
OCCN1CCN(CCCN2c3ccccc3C=Cc3ccccc32)CC1 [Opipramol],Ki,[4],7 nM
same,Ki,[5],56 nM
same,"Other Targets: 5-HT2A, B, C",[15],"5-HT2A, B, C (120 nM"
same,"Other Targets: alpha 1A, 1B",[16],"1A, 1B(200 nM)"
"CC(C)=CCN1CCC2(C)c3cc(O)ccc3CC1C2C (stereo not shown) [Pentazocine, pentazocine]",EC50,"[1]; Rattus norvegicus, Hippocampal neuron, read-out: Inhibition Abeta oligomer-induced Membrane Trafficking EC50 (uM)",7.6 µM
same,Functional Neuronal Phenotype,[1]; Table 11C,Antagonist
same,Ki,[5],5000 nM
same,Other Targets: NMDAR2B,[8],NMDAR2B (2.5 uM
same,Other Targets: 2A (NMDAR2A),[17],"uM), 2A (2.7 uM),"
same,Other Targets: PCP,[18],PCP (2.9 uM)
same,Ki,[2]; [33],> 5000 nM
CCC(Oc1ccc(Cl)cc1)C(=O)OC1CC2CCC(C1)N2C (stereo not shown) [SM-21],Max Inhibition of Abeta (%),[1],65%
same,Functional Neuronal Phenotype,[1]; Table 11C,Antagonist
same,EC50,[1]; [24],2.2 µM
same,Functional Neuronal Phenotype,[1]; Table 11D,Antagonist
same,IC50,[1]; [25],2.2 µM
same,Abeta oligomer-induced synapse loss eliminated / recovery,[14]; b801,20%
same,Ki,[9]; [26],1050 nM
same,Ki,[9]; [27],1050 nM
same,Ki,[9]; [28],1050 nM
same,Sigma 1 (Type of Activity),[4],(antagonist)
same,Selectivity other activities,[10],Muscarinic
same,Ki,[2]; [29],145 nM
same,Ki,[2]; [30],145 nM
same,Ki,[2]; [31],145 nM
COc1ccc(C)cc1NC(=O)OC1CC2CCCC(C1)N2CCCCCCN (stereo not shown) [SV-119],Effect on Abeta oligomer trafficking deficits over the concentrations tested,[1],"blocks Abeta oligomer trafficking deficits at low concentrations, but causes cellular toxicity at high concentrations"
same,EC50,[1]; [32],2.6 µM
same,Functional Neuronal Phenotype,[1]; Table 11C,Agonist
same,IC50,"[19]; Homo sapiens, SK-OV-3, tumor cell viability, 48 hrs",21700 ± 2900 nM
same,Action,[19]; by EC50 relative to siramesine,Full agonist
same,Caspase-3 activity induced in tumor cells,[20],caspase-3 activation
same,Caspase-3 activity induced in neurons,[21],caspase-3 activation
same,Nuclear morphology / nuclear intensity in neurons,[22],caused significant abnormal nuclear morphology
same,Ki,[9]; [26],1400 nM
same,Ki,[2]; [33],8 nM
"C[C@@H]([C@@H](O)c1ccc(O)cc1)N1CCC(Cc2ccccc2)CC1 [Threo-ifenprodil (TIF), Threo-ifenprodil]",Effect on Abeta oligomer trafficking deficits over the concentrations tested,[1],"does not cause apoptosis, affect trafficking or interfere with Abeta oligomer-induced trafficking deficits when dosed alone"
same,Max Inhibition of Abeta (%),[1],39%
same,Functional Neuronal Phenotype,[1]; Table 11C,Inactive
same,EC50,[1]; [24],> 20 µM
same,Sigma 2 type of activity,[5]; in brackets after the Ki,agonist
same,Affinity K+ ch,[23],88 nM
